We go through one compound from patent US8927561B2, “Pyrimidinedione anti-viral compounds” (Kineta, Inc., priority 2010, dated 2015).

One data set relates to HCV genotype 2A. As to the kind of experiment: HCV focus-forming assay (FFA). The class given is cell-based. The note with it: Hepatitis C virus. The protocol: (§1) Chemical analogs of KIN500 are tested for in vitro antiviral activity against HCV genotype 2A and influenza A virus (A/WSN/33). Viral protein and RNA levels are assessed following drug treatment using the assays described above.

Data set [1] has as its system influenza A virus (A/WSN/33). Put plainly: microbe, parasite or virus in culture. The class given is cell-based. The protocol: as §1
Another data set has as its system ISG expression. Put plainly: ISG expression enhancement. The class given is cell-based.
Data set [2] has as its system Murine Encephalomyocarditis virus (EMCV). Put plainly: EMCV antiviral assay (MTS cell viability). The class given is cell-based. The note with it: Huh7 cells, EMCV 250 pfu, 18 h post-infection.

As a reminder, the IC50 is the concentration needed to halve the response being measured. `COc1ccc(NC(=O)Cn2c(=O)n(Cc3ccco3)c(=O)c3sc4ccccc4c32)c(OC)c1` [KIN500, 2-[3-(furan-2-ylmethyl)-2,4-dioxo-3,4-dihydro[1]benzothieno[3,2-d]pyrimidin-1(2H)-yl]-N-(2,4-methoxyphenyl)acetamide]: the IC50 with HCV genotype 2A was 19.1 µM; in data set [1] (Influenza A virus, WSN, read-out: Influenza nucleoprotein (NP) ELISA (IC50)), 4.6 µM. Further, in data set [1] (CC50/IC50), the “Therapeutic index (TI) (CC50/IC50)” value came to 11. Further, the “enhancement of ISG expression” value in the data set on ISG expression was 18 fold. Further, the Cell viability post-infection in data set [2] (5 μM) is given as around 0.75; in data set [2] (10 μM) it was around 1.0; in data set [2] (20 μM), around 1.05. This compound also came in with a CC50 in “in vitro” above 50 µM.
